Measured values taken from PMC11143312, “Antioxidant, anti-amylase, anti-lipase, and efficiency of Satureja fatty acid on the anti-inflammatory parameters in lipopolysaccharide-stimulated macrophage through Nrf2/NF-kB/NADH oxidase pathway” (Scientific Reports, 2024).
≈ marks a conversion by molar mass, not a printed value.

What was measured:
[1] = test system: T1, lipase (EC 3.1.1.3, from Saccharomyces cerevisiae); test: pNPB hydrolysis at […] nm, Lineweaver-Burk plot; assay type: biochemical; details: no inhibitor; unit printed as µg, not a concentration; pNPB 0.0–10 mg/mL
T1 construct: gene TGL2; discussion speaks of pancreatic lipase, but the assay used the yeast-labelled enzyme

[2] = target: T1, lipase (EC 3.1.1.3, from Saccharomyces cerevisiae); test: p-nitrophenyl butyrate hydrolysis, absorbance at […] nm; assay type: biochemical; details: 30 min pre-incubation, 37 °C; substrate pNPB; positive control

CCCC(=O)Oc1ccc([N+](=O)[O-])cc1 [p-nitrophenyl butyrate]
Km [1]: 5.08 ± 0.23 µg

CCCCCCCCCCC[C@@H](C[C@@H]1OC(=O)[C@H]1CCCCCC)OC(=O)[C@H](CC(C)C)NC=O [orlistat]
IC50 [2]: 213 ± 5.0 µg/mL (≈ 430 µM)
